Laboratory results: patent US20240366594A1, “Small Molecule Inhibitors of Formation of Neutrophil-Derived Extracellular Traps (NETosis) and Uses Thereof” (The Brigham and Women's Hospital, Inc., priority 2021, published 2024)

How the values were obtained:
Murine neutrophils [1] = assay: Phagocytosis assay with fluorescent E. coli; type: cell-based, mouse; details: ricolinostat 10 μM, fluorescent E. coli 1 h; FIG. 1H
Method: (§1) FIGS. 1A-H. Class I/II HDACs drive NET formation • (A and B) Freshly purified human (A) or mouse (B) neutrophils were treated with the indicated HDAC inhibitors at different doses (10, 2, 0.4, 0.08 μM), or with GSK484 (10 μM), for 1 h and then stimulated with 1 μM PMA for 3 h. Cells were fixed and stained with anti-citrullinated histone H3 (CitH3) antibody. NETosis induction was measured as the level of anti-CitH3 fluorescent signal. PMA alone represents 100% of NET induction. “-”: Cells treated with the highest dose of the indicated drug but not activated with PMA. • (C and D) Human neutrophils were treated, or not, with ricolinostat or GSK484 and then stimulated with 1 μM PMA. NETosis induction was measured as area of nuclei stained with DAPI. (C) 3D reconstruction of nuclei in each treatment (grid size 7.8 μm). (D) Quantification of DAPI signal from multiple fields of view (D) (n=9 for unstimulated, not pretreated with any drug [NT] and ricolinostat, n=7 for GSK484). • (E and F) Human neutrophils were treated as in (C-D), and immunoblot analysis of the indicated proteins was performed. Relative quantification of band intensity was analyzed with ImageJ software (F). White violins plots depict the quantification of histone H3 acetylation; red violin plots depict the quantification of histone H3 citrullination. […] ROS production was measured by luminescence with luminol-HRP. […]

human neutrophils [2] = assay: Expansion of nuclei (area of DAPI-stained nuclei) in PMA-treated human neutrophils; type: cell-based; details: 1 μM PMA; FIGS. 1C and 1D
Method: as §1

human neutrophils [3] = assay: ROS production (luminol-HRP luminescence) in human neutrophils; type: cell-based; details: ricolinostat 10 μM, 1 μM PMA 3 h; FIG. 1G left
Method: as §1

mouse neutrophils = assay: Citrullinated histone H3 (CitH3) NET induction in PMA-stimulated mouse neutrophils; type: cell-based
Method: FIGS. 1A-H. Class I/II HDACs drive NET formation • (A and B) Freshly purified human (A) or mouse (B) neutrophils were treated with the indicated HDAC inhibitors at different doses (10, 2, 0.4, 0.08 μM), or with GSK484 (10 μM), for 1 h and then stimulated with 1 μM PMA for 3 h. Cells were fixed and stained with anti-citrullinated histone H3 (CitH3) antibody. NETosis induction was measured as the level of anti-CitH3 fluorescent signal. PMA alone represents 100% of NET induction. “-”: Cells treated with the highest dose of the indicated drug but not activated with PMA. • (C and D) Human neutrophils were treated, or not, with ricolinostat or GSK484 and then stimulated with 1 μM PMA. NETosis induction was measured as area of nuclei stained with DAPI. (C) 3D reconstruction of nuclei in each treatment (grid size 7.8 μm). (D) Quantification of DAPI signal from multiple fields of view (D) (n=9 for unstimulated, not pretreated with any drug [NT] and ricolinostat, n=7 for GSK484). • (E and F) Human neutrophils were treated as in (C-D), and immunoblot analysis of the indicated proteins was performed. Relative quantification of band intensity was analyzed with ImageJ software (F). White violins plots depict the quantification of histone H3 acetylation; red violin plots depict the quantification of histone H3 citrullination. Immunoblot in E is representative of four independent experiments. Gasdermin D NT, gasdermin D N terminal; pMLKL, phospho-MLKL. • (G) Human (left) or murine (right) neutrophils were treated, or not, with ricolinostat (10 μM) and then stimulated with 1 μM PMA for 3 h. ROS production was measured by luminescence with luminol-HRP. Histograms represent the total amount of ROS produced overtime. • (H) Murine neutrophils were treated, or not, with ricolinostat (10 μM) and then stimulated with fluorescent E. coli at the indicated multiplicity of infection (MOI) for 1 h. The histogram represents the percentage of neutrophils positive for E. coli staining. Graphs show mean±SEM. Statistics were calculated using one-way ANOVA (A, B, D) and two-way ANOVA (F, G, H) (*p<0.05; **p<0.01; ****p<0.0001. n.s., not significant). Statistics refers to the comparison with neutrophils stimulated with PMA alone (A, B). […]
FIGS. 5A-J. Class I/II HDACs drive NET formation. • A) Quantification of extracellular DNA released by neutrophils treated, or not, with 1 μM GSK484 for 1 h and then stimulated with 1 μM PMA for 4 hours. […] Extracellular DNA release was assessed in the supernatant 3 hours after PMA stimulation. […] NETosis induction was measured as level of anti-CitH3 fluorescent signal. […] NET induction was measured as in (C). […]

Murine neutrophils [4] = assay: ROS production (luminol-HRP luminescence) in murine neutrophils; type: cell-based, mouse; details: ricolinostat 10 μM, 1 μM PMA 3 h; FIG. 1G right
Method: as §1

Q: For `O=C(CCCCCCNC(=O)c1cnc(N(c2ccccc2)c2ccccc2)nc1)NO` [ricolinostat], which “bacterial phagocytosis (percentage of neutrophils positive for E. coli)” value (Murine neutrophils [1]) is on record?
A: Its value is “excluded that ricolinostat administration altered”.

Q: And the “expansion of nuclei (area of nuclei stained with DAPI)” value (human neutrophils [2])?
A: Its value is “significantly reduced”.

Q: And the “reactive oxygen species (ROS) production” value (human neutrophils [3])?
A: Its value is “did not alter”.

Q: What about the “release of CitH3 (NET induction)” value (mouse neutrophils; drugs 10, 2, 0.4, 0.08 μM for 1 h, then 1 μM PMA 3 h, FIG. 1B) of the same molecule?
A: The value was “efficiently decreased”.

Q: And the “NET formation (level of CitH3)” value (mouse neutrophils; murine neutrophils, PMA, FIG. 5J)?
A: The value was “inhibited NET formation to a comparable extent”.

Q: And the “reactive oxygen species (ROS) production” value (Murine neutrophils [4])?
A: The value was “did not alter”.
